Reference: patent US20260199483A1 (Bright Angel Therapeutics Inc., priority 2022, published 2026)

target: T1, purified recombinant Yck2 (Candida albicans, UniProt A0A1D8PKB4); assay: HotSpot kinase assay; format: biochemical, C. albicans
T1 construct: Yck2 residues 37-345 were PCR amplified from C. albicans genomic DNA; His6 (N); TEV protease site (N); made in house; host or cells: E. coli BL21(DE3)-Gold
Protocol: IC50s were determined using the in vitro HotSpot kinase assay (purified enzymes, ^33P-ATP, an appropriate substrate and 1 μM ATP). For enzyme inhibition assays, compounds were tested in range of ten concentrations from 10 uM to 0.0005 uM using purified recombinant Yck2. Reaction conditions were 1 uM ATP, one hour incubation with inhibitor, and kinase activity detected using 33-ATP phosphorylation of an appropriately selected peptide substrate.
Yck2 residues 37-345 were PCR amplified from C. albicans genomic DNA and subcloned into the vector pMCSG53, which codes for a N-terminal His6 tag, TEV protease site, followed by the Yck2 protein. E. coli BL21(DE3)-Gold competent cells were transformed with this plasmid and the Yck2 protein was purified using methodology previously described (Stogios et al., ACS Chem. Biol. 13, 1322-1332 (2018)).

T1 sequence (A0A1D8PKB4 entry or part of it): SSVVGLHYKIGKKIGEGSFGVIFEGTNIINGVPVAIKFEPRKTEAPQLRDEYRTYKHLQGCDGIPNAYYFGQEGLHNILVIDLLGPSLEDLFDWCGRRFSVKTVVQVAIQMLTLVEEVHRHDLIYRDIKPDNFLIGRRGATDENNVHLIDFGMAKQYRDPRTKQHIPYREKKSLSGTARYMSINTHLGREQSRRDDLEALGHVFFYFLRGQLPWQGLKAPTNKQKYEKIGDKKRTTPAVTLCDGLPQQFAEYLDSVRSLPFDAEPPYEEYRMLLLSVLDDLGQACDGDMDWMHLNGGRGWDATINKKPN

SMILES | IC50 [nM]
Nc1nccc(-c2c(-c3ccc(F)cc3)ncn2C2CCN(CC(=O)NCC(O)(Cn3cncn3)c3ccc(F)cc3F)CC2)n1 (stereo not shown) [Compound I-71, 2-(4-(5-(2-aminopyrimidin-4-yl)-4-(4-fluorophenyl)-1H-imidazol-1-yl)piperidin-1-yl)-N-(2-(2,4-difluorophenyl)-2-hydroxy-3-(1H-1,2,4-triazol-1-yl)propyl)acetamide] | 9.33
Nc1nccc(-c2c(-c3ccc(F)cc3)ncn2C2CCN(CCC(=O)NC3CCN(CC(O)(Cn4cncn4)c4ccc(F)cc4F)CC3)CC2)n1 (stereo not shown) [Compound I-234, 3-(4-(5-(2-aminopyrimidin-4-yl)-4-(4-fluorophenyl)-1H-imidazol-1-yl)piperidin-1-yl)-N-(1-(2-(2,4-difluorophenyl)-2-hydroxy-3-(1H-1,2,4-triazol-1-yl)propyl)piperidin-4-yl)propanamide] | 8.12
Nc1nccc(-c2c(-c3ccc(F)cc3)ncn2C2CCN(CC[C@@](O)(Cn3cncn3)c3ccc(F)cc3F)CC2)n1 [Compound I-55, (S)-4-(4-(5-(2-aminopyrimidin-4-yl)-4-(4-fluorophenyl)-1H-imidazol-1-yl)piperidin-1-yl)-2-(2,4-difluorophenyl)-1-(1H-1,2,4-triazol-1-yl)butan-2-ol] | 8.41
Cn1cc(-c2ccncc2CNCC(O)(Cn2cncn2)c2ccc(F)cc2F)c(-c2ccc(F)cc2)n1 (stereo not shown) [Compound I-5, 2-(2,4-difluorophenyl)-1-(((4-(3-(4-fluorophenyl)-1-methyl-1H-pyrazol-4-yl)pyridin-3-yl)methyl)amino)-3-(1H-1,2,4-triazol-1-yl)propan-2-ol] | 335
Nc1nccc(-c2c(-c3ccc(F)cc3)ncn2C2CCN(CC[C@](O)(Cn3cncn3)c3ccc(F)cc3F)CC2)n1 [Compound I-53, (R)-4-(4-(5-(2-aminopyrimidin-4-yl)-4-(4-fluorophenyl)-1H-imidazol-1-yl)piperidin-1-yl)-2-(2,4-difluorophenyl)-1-(1H-1,2,4-triazol-1-yl)butan-2-ol] | 9.52
Nc1nccc(-c2c(-c3ccc(F)cc3)ncn2C2CCN(CC(O)(Cn3ccnn3)c3ccc(F)cc3F)CC2)n1 (stereo not shown) [Compound I-35, 1-(4-(5-(2-aminopyrimidin-4-yl)-4-(4-fluorophenyl)-1H-imidazol-1-yl)piperidin-1-yl)-2-(2,4-difluorophenyl)-3-(1H-1,2,3-triazol-1-yl)propan-2-ol] | 6.8
OC(CN1CCC(NCc2ccc3c(-c4ccncc4)c(-c4ccc(F)cc4)nn3c2)CC1)(Cn1cncn1)c1ccc(F)cc1F (stereo not shown) [Compound I-254, 2-(2,4-difluorophenyl)-1-(4-(((2-(4-fluorophenyl)-3-(pyridin-4-yl)pyrazolo[1,5-a]pyridin-6-yl)methyl)amino)piperidin-1-yl)-3-(1H-1,2,4-triazol-1-yl)propan-2-ol] | 3.09
Cn1cc(-c2ccnc3c2C(=O)N(CC(O)(Cn2ccnc2)c2ccc(F)cc2F)C3)c(-c2ccc(F)cc2)n1 (stereo not shown) [Compound I-1, 6-(2-(2,4-difluorophenyl)-2-hydroxy-3-(1H-imidazol-1-yl)propyl)-4-(3-(4-fluorophenyl)-1-methyl-1H-pyrazol-4-yl)-6,7-dihydro-5H-pyrrolo[3,4-b]pyridin-5-one] | 46.3
Cn1cc(-c2ccnc3c2C(=O)N(CC(O)(Cn2cncn2)c2ccc(F)cc2F)C3)c(-c2ccc(F)cc2)n1 (stereo not shown) [Compound I-6, 6-(2-(2,4-difluorophenyl)-2-hydroxy-3-(1H-1,2,4-triazol-1-yl)propyl)-4-(3-(4-fluorophenyl)-1-methyl-1H-pyrazol-4-yl)-6,7-dihydro-5H-pyrrolo[3,4-b]pyridin-5-one] | 72.7
O=C(NCC(O)(Cn1cncn1)c1ccc(F)cc1F)c1cccc2c(-c3ccncc3)c(-c3ccc(F)cc3)nn12 (stereo not shown) [Compound I-151, N-(2-(2,4-difluorophenyl)-2-hydroxy-3-(1H-1,2,4-triazol-1-yl)propyl)-2-(4-fluorophenyl)-3-(pyridin-4-yl)pyrazolo[1,5-a]pyridine-7-carboxamide] | 765
Cn1cc(-c2ccncc2CNCCC(O)(Cn2cncn2)c2ccc(F)cc2F)c(-c2ccc(F)cc2)n1 (stereo not shown) [Compound I-3, 2-(2,4-difluorophenyl)-4-(((4-(3-(4-fluorophenyl)-1-methyl-1H-pyrazol-4-yl)pyridin-3-yl)methyl)amino)-1-(1H-1,2,4-triazol-1-yl)butan-2-ol] | 179
Nc1nccc(-c2c(-c3ccc(F)cc3)ncn2C2CCN(C(=O)CCNCC(O)(Cn3cncn3)c3ccc(F)cc3F)CC2)n1 (stereo not shown) [Compound I-77, 1-(4-(5-(2-aminopyrimidin-4-yl)-4-(4-fluorophenyl)-1H-imidazol-1-yl)piperidin-1-yl)-3-((2-(2,4-difluorophenyl)-2-hydroxy-3-(1H-1,2,4-triazol-1-yl)propyl)amino)propan-1-one] | 0.4
O[C@](CNCc1ccc2c(-c3ccncc3)c(-c3ccc(F)cc3)nn2c1)(Cn1cncn1)c1ccc(F)cc1F [Compound I-252, (R)-2-(2,4-difluorophenyl)-1-(((2-(4-fluorophenyl)-3-(pyridin-4-yl)pyrazolo[1,5-a]pyridin-6-yl)methyl)amino)-3-(1H-1,2,4-triazol-1-yl)propan-2-ol] | 2.07
Cn1cc(-c2ccnc3c2C(=O)N(CC2CCN(C[C@@](O)(Cn4cncn4)c4ccc(F)cc4F)CC2)C3)c(-c2ccc(F)cc2)n1 [Compound I-237, (R)-6-((1-(2-(2,4-difluorophenyl)-2-hydroxy-3-(1H-1,2,4-triazol-1-yl)propyl)piperidin-4-yl)methyl)-4-(3-(4-fluorophenyl)-1-methyl-1H-pyrazol-4-yl)-6,7-dihydro-5H-pyrrolo[3,4-b]pyridin-5-one] | 1.14
Cn1cc(-c2ccnc3c2C(=O)N(CCC2CCN(C[C@](O)(Cn4cncn4)c4ccc(F)cc4F)CC2)C3)c(-c2ccc(F)cc2)n1 (single isomer, unassigned) [Compound I-248] | 4.69
CN1Cc2nccc(-c3cn(CCC(O)(Cn4cncn4)c4ccc(F)cc4F)nc3-c3ccc(F)cc3)c2C1=O (stereo not shown) [Compound I-2, 4-(1-(3-(2,4-difluorophenyl)-3-hydroxy-4-(1H-1,2,4-triazol-1-yl)butyl)-3-(4-fluorophenyl)-1H-pyrazol-4-yl)-6-methyl-6,7-dihydro-5H-pyrrolo[3,4-b]pyridin-5-one] | 107
Cn1cc(-c2ccncc2CNC2CCN(CC(O)(Cn3cncn3)c3ccc(F)cc3F)CC2)c(-c2ccc(F)cc2)n1 (stereo not shown) [Compound I-4, 2-(2,4-difluorophenyl)-1-(4-(((4-(3-(4-fluorophenyl)-1-methyl-1H-pyrazol-4-yl)pyridin-3-yl)methyl)amino)piperidin-1-yl)-3-(1H-1,2,4-triazol-1-yl)propan-2-ol] | 178
Cn1cc(-c2ccncc2COCCC(O)(Cn2cncn2)c2ccc(F)cc2F)c(-c2ccc(F)cc2)n1 (stereo not shown) [Compound I-233, 2-(2,4-difluorophenyl)-4-((4-(3-(4-fluorophenyl)-1-methyl-1H-pyrazol-4-yl)pyridin-3-yl)methoxy)-1-(1H-1,2,4-triazol-1-yl)butan-2-ol] | 65.9
OC(CNCc1ccc2c(-c3ccncc3)c(-c3ccc(F)cc3)nn2c1)(Cn1cncn1)c1ccc(F)cc1F (stereo not shown) [Compound I-152, 2-(2,4-difluorophenyl)-1-(((2-(4-fluorophenyl)-3-(pyridin-4-yl)pyrazolo[1,5-a]pyridin-6-yl)methyl)amino)-3-(1H-1,2,4-triazol-1-yl)propan-2-ol] | 3.37
